Data taken from patent US7186728B2, “Methylene-4-azasteroids” (Schering AG, priority 2001, dated 2007).

Test system: action of testosterone propionate (TP) on the growth of the seminal vesicle and prostate
Assay: Antiandrogenic activity: inhibition of testosterone propionate (TP) action on accessory genital gland growth in castrated immature male rats
Format: in vivo, rat
Details: for Effects of testosterone propionate, TP, on the prostate and seminal vesicle (in words): castrated immature male rats, TP + compound; for Inhibition of the action of testosterone propionate (TP) on the growth of the prostate / Inhibition of the action of testosterone propionate (TP) on the growth of the seminal vesicle: sexually immature castrated male rats, TP 0.1 mg/animal/day s.c. + 5α-reductase inhibitor 1 mg/animal/day s.c., 7 days, difference vehicle controls and TP controls = 100%
Protocol: Evaluation of antiandrogenic activity of the compounds of the invention was performed in castrated male rats (see FIGS. 1 to 5/table). Castrated immature male rats were treated for 7 days with testosterone propionate (TP) and the substances of the invention (0.1 mg of TP alone and/or 1 mg of 5α-reductase inhibitor/animal/day, s.s., n=5–10/group). The treatment with TP caused a severe increase in weight of the accessory genital glands (prostate and seminal vesicle). In the animals treated with the vehicle and with 5α-reductase inhibitor alone, the weights of the examined organs remained at low values. The substances of the invention exerted an inhibitory effect in the test systems selected. […] [table]

SMILES	Effects of testosterone propionate, TP, on the prostate and seminal vesicle (in words)	Inhibition of the action of testosterone propionate (TP) on the growth of the prostate [%]	Inhibition of the action of testosterone propionate (TP) on the growth of the seminal vesicle [%]
CN1C(=O)CC[C@@H]2C3CC[C@]4(C)/C(=C/Cl)CCC4C3CC[C@H]21 (stereo partly drawn) [J 1879]	appreciably reduced	34	25
CN1C(=O)CC[C@]2(C)C3CC[C@]4(C)/C(=C/Cl)CCC4C3CC[C@@H]12 (stereo partly drawn) [J 1924]	appreciably reduced	39	41
